Experimental data from article PMC5218480 (PLoS ONE, 2017).

Tested on: MV-4-11 cells
Assay: Gene expression microarray analysis (Affymetrix PrimeView) and GSEA
Format: cell-based, human
Parameters: RFU PODN (11730768_x_at) / Fold change /veh PODN (11730768_x_at) / RFU LINC00158 (11744669_a_at) / Fold change /veh LINC00158 (11744669_a_at) / RFU DUSP10 (11751237_a_at) / Fold change /veh DUSP10 (11751237_a_at) / RFU ID3 (11757404_x_at) / Fold change /veh ID3 (11757404_x_at) / RFU PLEKHG5 (11737974_s_at) / Fold change /veh PLEKHG5 (11737974_s_at) / RFU LRRC4B (11730491_at) / Fold change /veh LRRC4B (11730491_at) / RFU GIMAP4 (11747438_a_at) / Fold change /veh GIMAP4 (11747438_a_at) / RFU KRT8 (11758183_x_at) / Fold change /veh KRT8 (11758183_x_at) / RFU CNN1 (11734310_a_at) / Fold change /veh CNN1 (11734310_a_at) / RFU VPS37D (11726825_at) / Fold change /veh VPS37D (11726825_at) / RFU C10orf10 (11716522_x_at) / Fold change /veh C10orf10 (11716522_x_at) / RFU KIR2DL2 /// KIR2DL4 /// KIR2DL5A /// KIR2DL5B /// KIR2DS1 /// KIR2DS2 /// KIR2DS3 /// KIR2DS4 /// KIR3DL3 /// KIR3DL3 /// KIR3DS1 (11738374_at) / Fold change /veh KIR2DL2 /// KIR2DL4 /// KIR2DL5A /// KIR2DL5B /// KIR2DS1 /// KIR2DS2 /// KIR2DS3 /// KIR2DS4 /// KIR3DL3 /// KIR3DL3 /// KIR3DS1 (11738374_at) / RFU C1QL1 (11718748_at) / Fold change /veh C1QL1 (11718748_at) / RFU TMPRSS4 (11747572_a_at) / Fold change /veh TMPRSS4 (11747572_a_at) / RFU HAMP (11756126_x_at) / Fold change /veh HAMP (11756126_x_at) / RFU RNFT2 (11725882_a_at) / Fold change /veh RNFT2 (11725882_a_at) / RFU NR4A2 (11747474_a_at) / Fold change /veh NR4A2 (11747474_a_at) / RFU ABCC12 (11746883_a_at) / Fold change /veh ABCC12 (11746883_a_at) / RFU TMEM136 (11760407_x_at) / Fold change /veh TMEM136 (11760407_x_at) / RFU CLDN22 /// WWC2 (11732394_at) / Fold change /veh CLDN22 /// WWC2 (11732394_at) / RFU HLA-DPB1 (11760878_x_at) / Fold change /veh HLA-DPB1 (11760878_x_at) / RFU SPINT1 (11716480_a_at) / Fold change /veh SPINT1 (11716480_a_at) / RFU GAP43 (11754022_s_at) / Fold change /veh GAP43 (11754022_s_at) / RFU A4GNT (11735810_at) / Fold change /veh A4GNT (11735810_at) / RFU PRB3 (11715151_x_at) / Fold change /veh PRB3 (11715151_x_at) / RFU TUBB4B (11761932_at) / Fold change /veh TUBB4B (11761932_at) / RFU CAPN14 (11732068_a_at) / Fold change /veh CAPN14 (11732068_a_at) / RFU TMCC2 (11721928_a_at) / Fold change /veh TMCC2 (11721928_a_at) / RFU IRGQ (11745062_a_at) / Fold change /veh IRGQ (11745062_a_at) / RFU FAM174B (11720279_a_at) / Fold change /veh FAM174B (11720279_a_at) / RFU TMPRSS4 (11748680_a_at) / Fold change /veh TMPRSS4 (11748680_a_at) / RFU FAM212B (11763350_a_at) / Fold change /veh FAM212B (11763350_a_at) / RFU PLEKHG5 (11743358_a_at) / Fold change /veh PLEKHG5 (11743358_a_at) / RFU ZSCAN30 (11745921_a_at) / Fold change /veh ZSCAN30 (11745921_a_at) / RFU CMKLR1 (11741424_a_at) / Fold change /veh CMKLR1 (11741424_a_at) / RFU LOC101060620 /// MAPK8IP1 (11723275_at) / Fold change /veh LOC101060620 /// MAPK8IP1 (11723275_at) / RFU SPTSSB (11747773_x_at) / Fold change /veh SPTSSB (11747773_x_at) / RFU PRSS12 (11739890_at) / Fold change /veh PRSS12 (11739890_at) / RFU BIN1 (11741810_x_at) / Fold change /veh BIN1 (11741810_x_at) / RFU WNT11 (11732464_a_at) / Fold change /veh WNT11 (11732464_a_at) / RFU C10orf10 (11716521_a_at) / Fold change /veh C10orf10 (11716521_a_at) / RFU C5orf56 (11738089_at) / Fold change /veh C5orf56 (11738089_at) / RFU CYB561 (11721691_x_at) / Fold change /veh CYB561 (11721691_x_at) / RFU ANKRD19P (11752326_a_at) / Fold change /veh ANKRD19P (11752326_a_at) / RFU OR2T12 /// OR2T33 /// OR2T8 (11738714_s_at) / Fold change /veh OR2T12 /// OR2T33 /// OR2T8 (11738714_s_at) / RFU VCAN (11748164_a_at) / Fold change /veh VCAN (11748164_a_at) / RFU JSRP1 (11732532_at) / Fold change /veh JSRP1 (11732532_at) / RFU KRTAP10-11 (11738290_x_at) / Fold change /veh KRTAP10-11 (11738290_x_at) / RFU MYO3A (11730013_a_at) / Fold change /veh MYO3A (11730013_a_at) / RFU EBF3 (11725865_a_at) / Fold change /veh EBF3 (11725865_a_at) / RFU CAMK2N1 (11719241_x_at) / Fold change /veh CAMK2N1 (11719241_x_at) / RFU C5orf56 (11738088_a_at) / Fold change /veh C5orf56 (11738088_a_at) / RFU OLFML3 (11715873_a_at) / Fold change /veh OLFML3 (11715873_a_at) / RFU LOC100653217 /// NTM (11731650_a_at) / Fold change /veh LOC100653217 /// NTM (11731650_a_at) / RFU MAPK11 (11762145_a_at) / Fold change /veh MAPK11 (11762145_a_at) / RFU FIZ1 (11724087_x_at) / Fold change /veh FIZ1 (11724087_x_at) / RFU OASL (11726364_x_at) / Fold change /veh OASL (11726364_x_at) / RFU SOX15 (11748057_x_at) / Fold change /veh SOX15 (11748057_x_at) / RFU CD79A (11719716_a_at) / Fold change /veh CD79A (11719716_a_at) / RFU HIST1H1D (11736915_at) / Fold change /veh HIST1H1D (11736915_at) / RFU CASKIN2 (11723855_a_at) / Fold change /veh CASKIN2 (11723855_a_at) / RFU LOC730098 (11760151_x_at) / Fold change /veh LOC730098 (11760151_x_at) / RFU OR4N2 (11742367_at) / Fold change /veh OR4N2 (11742367_at) / RFU PRRT2 (11749266_a_at) / Fold change /veh PRRT2 (11749266_a_at) / RFU SNX32 (11753110_a_at) / Fold change /veh SNX32 (11753110_a_at) / RFU CDHR5 (11726645_a_at) / Fold change /veh CDHR5 (11726645_a_at) / RFU RCAN1 (11760418_a_at) / Fold change /veh RCAN1 (11760418_a_at) / RFU FAM167A (11723789_a_at) / Fold change /veh FAM167A (11723789_a_at) / RFU FAM26E (11764081_at) / Fold change /veh FAM26E (11764081_at) / RFU ISYNA1 (11749810_s_at) / Fold change /veh ISYNA1 (11749810_s_at) / RFU ACY1 (11761880_at) / Fold change /veh ACY1 (11761880_at) / RFU 11764098_at / Fold change /veh 11764098_at / RFU SAMD14 (11745864_x_at) / Fold change /veh SAMD14 (11745864_x_at) / RFU NPB (11741838_a_at) / Fold change /veh NPB (11741838_a_at) / RFU TMPRSS6 (11731388_a_at) / Fold change /veh TMPRSS6 (11731388_a_at) / RFU KRTAP10-2 (11738614_at) / Fold change /veh KRTAP10-2 (11738614_at) / RFU ARHGAP8 /// PRR5-ARHGAP8 (11727945_x_at) / Fold change /veh ARHGAP8 /// PRR5-ARHGAP8 (11727945_x_at) / RFU KRTAP5-7 /// NADSYN1 (11734609_at) / Fold change /veh KRTAP5-7 /// NADSYN1 (11734609_at) / RFU RASL12 (11751679_a_at) / Fold change /veh RASL12 (11751679_a_at) / RFU CDKN2B (11736163_a_at) / Fold change /veh CDKN2B (11736163_a_at) / RFU PRF1 (11729649_at) / Fold change /veh PRF1 (11729649_at) / RFU, ZNF638 /// ZNF638-IT1 / Fold change vs veh, ZNF638 /// ZNF638-IT1 / RFU, PANK3 / Fold change vs veh, PANK3 / RFU, SH3YL1 / Fold change vs veh, SH3YL1 / RFU, ZEB2 / Fold change vs veh, ZEB2 / RFU, NRIP1 / Fold change vs veh, NRIP1 / RFU, PTTG1IP / Fold change vs veh, PTTG1IP / RFU, CAPN2 / Fold change vs veh, CAPN2 / RFU, MED14 / Fold change vs veh, MED14 / RFU, SNORA58 / Fold change vs veh, SNORA58 / RFU, C1orf63 / Fold change vs veh, C1orf63 / RFU, LRRFIP1 / Fold change vs veh, LRRFIP1 / RFU, NDUFAF7 / Fold change vs veh, NDUFAF7 / RFU, SLC12A2 / Fold change vs veh, SLC12A2 / RFU, IBTK / Fold change vs veh, IBTK / RFU, ESF1 / Fold change vs veh, ESF1 / Fold change vs veh, TMEM50B / RFU, TAOK1 / Fold change vs veh, TAOK1 / RFU, ACBD3 / Fold change vs veh, ACBD3 / RFU, TMA16 / Fold change vs veh, TMA16 / RFU, RWDD3 / Fold change vs veh, RWDD3 / RFU, BCAT1 / Fold change vs veh, BCAT1 / RFU, EDEM3 / Fold change vs veh, EDEM3 / RFU, TMEM33 / Fold change vs veh, TMEM33 / RFU, WDR75 / Fold change vs veh, WDR75 / RFU, AHCTF1 / Fold change vs veh, AHCTF1 / RFU, TFRC / Fold change vs veh, TFRC / RFU, ZDHHC17 / Fold change vs veh, ZDHHC17 / RFU, NOM1 / Fold change vs veh, NOM1 / RFU, ARL8B / Fold change vs veh, ARL8B / RFU, ZBTB11 / Fold change vs veh, ZBTB11 / RFU, TAMM41 / Fold change vs veh, TAMM41 / RFU, KIAA1704 /// LOC100996395 / Fold change vs veh, KIAA1704 /// LOC100996395 / RFU, ING1 / Fold change vs veh, ING1 / RFU, TRMT61B / Fold change vs veh, TRMT61B / RFU, FUBP3 / Fold change vs veh, FUBP3 / RFU, TP53 / Fold change vs veh, TP53 / RFU, TNKS2 / Fold change vs veh, TNKS2 / RFU, ZFP14 / Fold change vs veh, ZFP14 / RFU, ACTR2 / Fold change vs veh, ACTR2 / RFU, PPP3R1 / Fold change vs veh, PPP3R1 / RFU, PIK3R1 / Fold change vs veh, PIK3R1 / RFU, HNRNPA1 / Fold change vs veh, HNRNPA1 / RFU, RNF170 / Fold change vs veh, RNF170 / RFU, ZNF28 / Fold change vs veh, ZNF28 / RFU, RNGTT / Fold change vs veh, RNGTT / RFU, OGT / Fold change vs veh, OGT / RFU, BRD1 / Fold change vs veh, BRD1 / RFU, MARS / Fold change vs veh, MARS / RFU, ZNF655 / Fold change vs veh, ZNF655 / RFU, FAHD1 / Fold change vs veh, FAHD1 / RFU, BDP1 / Fold change vs veh, BDP1 / RFU, LRRCC1 / Fold change vs veh, LRRCC1 / RFU, ARID1A / Fold change vs veh, ARID1A / RFU, ZNF146 / Fold change vs veh, ZNF146 / RFU, ZNF330 / Fold change vs veh, ZNF330 / RFU, GPN3 / Fold change vs veh, GPN3 / RFU, C9orf123 / Fold change vs veh, C9orf123 / RFU, N4BP2L2 / Fold change vs veh, N4BP2L2 / RFU, ARFIP1 / Fold change vs veh, ARFIP1 / RFU, FAM179B / Fold change vs veh, FAM179B / RFU, BCL10 / Fold change vs veh, BCL10 / RFU, UHRF1BP1L / Fold change vs veh, UHRF1BP1L / RFU, BET1 / Fold change vs veh, BET1 / RFU, CNOT2 / Fold change vs veh, CNOT2 / RFU, ZNF268 / Fold change vs veh, ZNF268 / Fold change vs veh, ZNF507 / RFU, DGCR2 / Fold change vs veh, DGCR2 / RFU, WDSUB1 / Fold change vs veh, WDSUB1 / Fold change vs veh, HSP90B1 /// MIR3652 / RFU, ADSS / Fold change vs veh, ADSS / RFU, GK / Fold change vs veh, GK / RFU, ZNF148 / Fold change vs veh, ZNF148 / RFU, TAF9 / Fold change vs veh, TAF9 / RFU, SLC1A5 / Fold change vs veh, SLC1A5 / RFU, SLMO2 / Fold change vs veh, SLMO2 / RFU, ABCC4 / Fold change vs veh, ABCC4 / RFU, LOC101060439 /// RAP1B / Fold change vs veh, LOC101060439 /// RAP1B / RFU, RFX7 / Fold change vs veh, RFX7 / RFU, GTPBP10 / Fold change vs veh, GTPBP10 / RFU, CNEP1R1 / Fold change vs veh, CNEP1R1 / RFU, BIVM-ERCC5 /// ERCC5 / Fold change vs veh, BIVM-ERCC5 /// ERCC5 / RFU, ILF3 / Fold change vs veh, ILF3 / RFU 11762660_at / Fold change /veh 11762660_at / RFU VCAN (11757783_s_at) / Fold change /veh VCAN (11757783_s_at) / RFU DDX43 (11728927_at) / Fold change /veh DDX43 (11728927_at) / RFU KRT8 (11758188_x_at) / Fold change /veh KRT8 (11758188_x_at) / RFU NKD1 (11759106_at) / Fold change /veh NKD1 (11759106_at) / RFU SRD5A1 (11742802_a_at) / Fold change /veh SRD5A1 (11742802_a_at) / RFU TPSAB1 /// TPSB2 (11721975_s_at) / Fold change /veh TPSAB1 /// TPSB2 (11721975_s_at) / RFU GSTM3 (11746129_a_at) / Fold change /veh GSTM3 (11746129_a_at) / RFU IL23R (11737362_x_at) / Fold change /veh IL23R (11737362_x_at) / RFU TMEM51 (11727254_a_at) / Fold change /veh TMEM51 (11727254_a_at) / RFU PIWIL2 (11732686_x_at) / Fold change /veh PIWIL2 (11732686_x_at) / RFU ORM1 (11744905_x_at) / Fold change /veh ORM1 (11744905_x_at) / RFU CCDC152 (11743942_at) / Fold change /veh CCDC152 (11743942_at) / RFU ECM1 (11717891_a_at) / Fold change /veh ECM1 (11717891_a_at) / RFU IL23R (11748794_a_at) / Fold change /veh IL23R (11748794_a_at) / RFU TNFAIP8L3 (11732012_x_at) / Fold change /veh TNFAIP8L3 (11732012_x_at) / RFU MBOAT4 (11741988_at) / Fold change /veh MBOAT4 (11741988_at) / RFU 11764193_at / Fold change /veh 11764193_at / RFU TMEM53 (11763286_at) / Fold change /veh TMEM53 (11763286_at) / RFU MAGEB2 (11727129_at) / Fold change /veh MAGEB2 (11727129_at) / RFU TMEM200A (11744735_a_at) / Fold change /veh TMEM200A (11744735_a_at) / RFU CCDC152 (11751479_a_at) / Fold change /veh CCDC152 (11751479_a_at) / RFU FAM211A (11726209_a_at) / Fold change /veh FAM211A (11726209_a_at) / RFU RGS16 (11746705_a_at) / Fold change /veh RGS16 (11746705_a_at) / RFU VCAN (11755009_s_at) / Fold change /veh VCAN (11755009_s_at) / RFU RHOB (11743442_s_at) / Fold change /veh RHOB (11743442_s_at) / RFU RGS16 (11720943_a_at) / Fold change /veh RGS16 (11720943_a_at) / RFU RGS16 (11720944_at) / Fold change /veh RGS16 (11720944_at) / RFU, VPS4B / Fold change vs veh, VPS4B / RFU, CREB1 / Fold change vs veh, CREB1 / RFU, DNAJC13 / Fold change vs veh, DNAJC13 / RFU, GNAQ / Fold change vs veh, GNAQ / RFU, CDK5R1 / Fold change vs veh, CDK5R1 / RFU, ZRANB3 / Fold change vs veh, ZRANB3 / RFU, CUL4A / Fold change vs veh, CUL4A / RFU, CCNY / Fold change vs veh, CCNY / RFU, UFL1 / Fold change vs veh, UFL1 / RFU, COG3 / Fold change vs veh, COG3 / RFU, DIAPH2 / Fold change vs veh, DIAPH2 / RFU, SKA2 / Fold change vs veh, SKA2 / RFU, AFF3 / Fold change vs veh, AFF3 / RFU, LMF1 / Fold change vs veh, LMF1 / RFU, IPO11 / Fold change vs veh, IPO11 / RFU, DFFB / Fold change vs veh, DFFB / RFU, FOXP1 / Fold change vs veh, FOXP1 / RFU, CARD8 / Fold change vs veh, CARD8 / RFU, STRN3 / Fold change vs veh, STRN3 / RFU, ADK / Fold change vs veh, ADK / RFU, RASSF2 / Fold change vs veh, RASSF2 / RFU, WIPF1 / Fold change vs veh, WIPF1 / RFU, LARP1B / Fold change vs veh, LARP1B / RFU, RASA1 / Fold change vs veh, RASA1 / RFU, RB1 / Fold change vs veh, RB1 / RFU, PPFIA1 / Fold change vs veh, PPFIA1 / RFU, MAT2A / Fold change vs veh, MAT2A / RFU, CCT5 / Fold change vs veh, CCT5 / RFU, WDR92 / Fold change vs veh, WDR92 / RFU, CUX1 / Fold change vs veh, CUX1 / RFU, TTC7A / Fold change vs veh, TTC7A / RFU, TMEM135 / Fold change vs veh, TMEM135 / RFU, DEPTOR / Fold change vs veh, DEPTOR / RFU, CPM / Fold change vs veh, CPM / RFU, DNAJB6 / Fold change vs veh, DNAJB6 / RFU, CACNA2D3 / Fold change vs veh, CACNA2D3 / RFU, DTX4 / Fold change vs veh, DTX4 / RFU, TFCP2 / Fold change vs veh, TFCP2 / RFU, GMCL1 /// GMCL1P1 / Fold change vs veh, GMCL1 /// GMCL1P1 / RFU, AEBP2 / Fold change vs veh, AEBP2 / RFU, SNHG1 /// SNORD22 /// SNORD25 /// SNORD26 /// SNORD27 /// SNORD28 /// SNORD29 /// SNORD31 / Fold change vs veh, SNHG1 /// SNORD22 /// SNORD25 /// SNORD26 /// SNORD27 /// SNORD28 /// SNORD29 /// SNORD31 / Fold change (Aza/veh), C12orf56 (ProbeSet 11735607_a_at) / Fold change (ACY-1035/veh), C12orf56 (ProbeSet 11735607_a_at) / Fold change (Aza/veh), FGFR1OP (ProbeSet 11751329_s_at) / Fold change (ACY-1035/veh), FGFR1OP (ProbeSet 11751329_s_at) / Fold change (Aza/veh), VPS36 (ProbeSet 11739960_a_at) / Fold change (ACY-1035/veh), VPS36 (ProbeSet 11739960_a_at) / RFU SYPL1 (11715823_x_at) / Fold change /veh SYPL1 (11715823_x_at) / RFU IGFBP7 (11715501_s_at) / Fold change /veh IGFBP7 (11715501_s_at) / RFU REEP3 (11722064_at) / Fold change /veh REEP3 (11722064_at) / RFU IGLL1 (11728026_x_at) / Fold change /veh IGLL1 (11728026_x_at): dose or concentration left out as unconfirmed
Conditions: ProbeSet 11719493_s_at; LIST B

SMILES: Nc1ccc(-c2cccs2)cc1NC(=O)c1ccc2c(c1)cc(C1CC1)n2CCN1CCOCC1 [ACY-1035]
- RFU, TAF9: 511.51 RFU
